Test results: US20240368123A1, “AROMATIC RING-CONTAINING BIOLOGICAL ANTAGONIST, AND PREPARATION METHOD THEREFOR AND USE THEREOF” (SHANGHAI HANSOH BIOMEDICAL CO., LTD., priority 2021, published 2024)

What was measured:
[1] = molecular target: T1, ETA receptors (Homo sapiens, UniProt P25101); assay: Effect on calcium current in cells stably expressing ETA receptors (FLIPR, antagonist mode); assay type: cell-based; settings: HEK293-ETA cells, Fluo-8 AM, FLIPR Tetra; read-out: IC50 values of compounds on calcium current in cells stably expressing ETA receptors
T1 construct: host or cells: HEK293
T1 sequence (P25101 21-427): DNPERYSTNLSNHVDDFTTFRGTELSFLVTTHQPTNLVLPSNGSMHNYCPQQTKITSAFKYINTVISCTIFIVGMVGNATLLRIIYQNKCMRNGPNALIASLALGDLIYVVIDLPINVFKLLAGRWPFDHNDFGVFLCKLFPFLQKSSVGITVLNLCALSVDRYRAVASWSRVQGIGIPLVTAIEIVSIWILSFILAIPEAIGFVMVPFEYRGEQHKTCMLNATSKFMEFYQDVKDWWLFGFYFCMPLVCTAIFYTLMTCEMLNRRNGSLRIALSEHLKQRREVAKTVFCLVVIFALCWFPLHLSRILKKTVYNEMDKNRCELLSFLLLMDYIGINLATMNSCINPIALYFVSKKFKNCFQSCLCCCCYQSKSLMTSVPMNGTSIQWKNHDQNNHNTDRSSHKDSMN
Description: Test Example 2. Determination of the Effect of the Compounds of the Present Invention on Calcium Current in Cells Stably Expressing ETA Receptors
• Antagonistic effect of test compounds on HEK293-ETA cell activity.
• DMEM, high glucose (Gibco: 12100); • Fetal bovine serum (Biosera: FB-1058/500); • P/S (Biosera: XC-A4122); • 5× Matrigel (Corning: 354230); • HBSS (Sigma: H1387); • HEPES (Invitrogen: 15630080); • Fluo-8 AM (AAT Bioquest: 21080); • Probenecid (Sigma: P8761); • Pluronic F-127 (Sigma: P2443-250G); • Endothelin 1 (MCE: HY—P0202); • Zibotentan (MCE: HY-10088); • 1000× Fluo-8 AM (2 mM): Fluo-8 AM was dissolved in DMSO, the mixture was shaken for 1-2 min, sub-packaged and stored at −20° C.; • Complete culture medium: DMEM+10% FBS+1×P/S; • Cell seeding medium: DMEM+10% FBS+1×PS; • Experimental buffer 1: 1×HBSS+20 mM HEPES+1 mM Probenecid+0.025% Pluronic F-127; • Experimental buffer 2: 1×HBSS+20 mM HEPES+0.075% Pluronic F-127; • 1× Matrigel: 5× Matrigel was diluted with DMEM; • Cell line: HDB HEK293-ETA.
• 1) HEK293-ETA cell line was cultured in complete culture medium at 37° C., 5% CO2 to 70%-90% confluence. • 2) the 384-well cell plate was coated with 1× Matrigel with 5 μL/well at room temperature for 10 to 30 min. • 3) the cells were digested and resuspended in cell seeding medium, inoculation was performed at 8,000 cells/well/20 μL in a 384-well cell culture plate, and the cells were cultured at 37° C., 5% CO2 for 24 h. • 4) the cell culture plate was taken out of the CO2 incubator and equilibrated at room temperature for 10 min. • 5) 1000× Fluo-8 AM was taken and diluted to 1× Fluo-8 AM with experimental buffer 1 that has been equilibrated to room temperature, with a concentration of 2 μM. • 6) the culture medium was removed from the cell culture plate, 20 μL of 1× Fluo-8 AM was added to each well, the mixture was centrifuged at 300 rpm for 60 seconds at room temperature, and incubated at room temperature in the dark for 1 h. • 7) positive control compound and test compound working solution (3×) were formulated: • (1) instrument Bravo was used to dilute the compound to 11 concentration points on the 384-well Echo compound plate (LABCYTE: LP-0200); • (2) instrument ECHO was used to transfer 90 nL of compound per well (compound storage concentration, such as the highest concentration point 10 mM) to the 384-well compound plate (PE: 6008590); • (3) Multidrop Combi was used to add 30 μL of experimental buffer 2 to the 384-well compound plate (PE: 6008590), the positive control compound and test compound were diluted to 30 μM (3×), and placed at room temperature until use. • 8) FLIPR Tetra was used to add 10 μL of diluted 3× compound into the experimental well of the corresponding 384-well cell plate, the compound and cells were incubated for 10 min at room temperature, then 10 μL of diluted 4× agonist was added, and the data was read and collected at the same time.
FLIPR Tetra was used to read and collect the fluorescence signal value (RFU). The maximum RFU value was used to calculate the percent activation data based on the readings of the Low control (DMSO control) and High control (100 nM positive compound) experimental groups {% activation rate=(RFUsample−RFUlow control)/(RFUhigh control−RFUlow control)×100}. The concentration of the test compound was 11 concentrations after diluting the reaction system 3 times, ranging from 10 μM to 0.17 nM.

[2] = Liver microsomal metabolism stability test, human; assay type: in vitro ADME; settings: for half-life at 1 μM: human liver microsomes 0.5 mg/mL, compound 1 μM, NADPH/UDPGA; for Remaining rate: human liver microsomes, 60 min
Experimental: The purpose of this experiment was to detect the stability of the example compounds in liver microsomes of rats, dogs and humans.
• Formulation of working solution of compounds: compound stock solution was added to phosphate buffer to a final concentration of 20 μM.
Dilution was performed with 100 mM phosphate buffer to a final concentration of 0.625 mg/mL.
NADPH (reduced nicotinamide adenine dinucleotide phosphate) and UDPGA (uridine diphosphate glucuronic acid) were weighed, 100 mM phosphate buffer was added, and the final concentration was 20 mM.
1 mg of Alamethicin was weighed, and 200 μL of DMSO was added to formulate a 5 mg/mL solution. Then dilution was performed with phosphate buffer to a final concentration of 50 μg/mL.
Stop solution: the stop solution contains 100 ng/mL labetalol hydrochloride and 400 ng/mL tolbutamide and cold acetonitrile as internal standard.
400 μL of formulated liver microsomes, 25 μL of compound working solution and 25 μL of Alamethicin were added in sequence to the 96-well plate, and pre-incubated at 37° C. for 10 min. Then 50 μL of formulated NADPH/UDPGA was added to start the reaction and the mixture was incubated at 37° C. The total volume of the reaction system was 500 μL. The final contents of each component are as follows:
• Instrument: Shimadzu LC-30 AD; • Chromatographic column: XBridge® C18 (50*4.6 mm, 5 μm particle size); • Mobile phase: A: 0.1% formic acid solution, B: methanol Wash gradient: 0.2-1.6 min 5% A to 95% A, 3.0-3.1 min 95% A to 5% A Run time: 4.0 min.
• Instrument: API5500 liquid chromatography mass spectrometer, AB Sciex; • Ion source: electrospray ionization source (ESI); • Drying gas: N2, temperature 500° C.; • Electrospray voltage: 5000 V; • Detection mode: positive ion detection; • Scanning mode: reaction monitoring (MRM) mode.

Structure (SMILES)	IC50 [1] [nM]	half-life at 1 μM [2] [min]	Remaining rate [2] [%]
CCCCC1=NC2(CC3CC3C2)C(=O)N1Cc1ccc(-c2ccccc2S(=O)(=O)Nc2noc(C)c2Cl)c(COCC)c1 (stereo not drawn) [Example 65, 4′-((2′-butyl-5′-oxaspiro[bicyclo[3.1.0]hexane-3,4′-imidazole]-1′(5′H)-yl)methyl)-N-(4-chloro-5-methylisoxazol-3-yl)-2′-(ethoxymethyl)-[1,1′-biphenyl]-2-sulfonamide]	7.2		
CCCCC1=NC2(CCCC2)C(=O)N1Cc1ccc(-c2ccccc2S(=O)(=O)Nc2noc(C)c2Br)c(COCC)c1 [Example 46, 2-[4-[(2-butyl-4-oxo-1,3-diazaspiro[4.4]non-1-en-3-yl)methyl]-2-(ethoxymethyl)phenyl]-N-(4-bromo-5-methyl-isoxazol-3-yl)benzsulfamide]		28.9	23.8
CCCCC1=NC2(CCCCC2)C(=O)N1Cc1ccc(-c2ccccc2S(=O)(=O)Nc2noc(C)c2Cl)c(COCC)c1 [Example 68, 4′-((2-2-4-4-oxo-1,3-diazaspiro[4.5]dec-1-en-3-yl)methyl)-N-(4-chloro-5-methylisoxazol-3-yl)-2′-(ethoxymethyl)-[1,1′-biphenyl]-2-sulfonamide]	18.7		
[2H]C([2H])(OCC)c1cc(CN2C(=O)C3(CCCC3)N=C2CCCC)ccc1-c1ccccc1S(=O)(=O)Nc1noc(C)c1Cl [Example 49, 4′-((2-butyl-4-oxo-1,3-diazospiro[4.4]non-1-en-3-yl)methyl)-N-(4-chloro-5-methylisoxazol-3-yl)-2′-(ethoxydeuteriummethyl)-[1,1′-biphenyl]-2-sulfonamide]	12.9	26.2	30.7
CCCCC1=NC2(CCCC2)C(=O)N1Cc1ccc(-c2ccccc2S(=O)(=O)Nc2noc(C)c2Cl)c(COCC(F)(F)F)c1 [Example 86]	13.9		
CCCCC1=NC2(CC3CC3C2)C(=O)N1Cc1ccc(-c2ccccc2S(=O)(=O)Nc2noc(C)c2C)c(COCC)c1 (stereo not drawn) [Example 87, 4′-((2′-butyl-5′-oxaspiro[bicyclo[3.1.0]hexane-3,4′-imidazole]-1′(5′H)-yl)methyl)-N-(4,5-dimethylisoxazol-3-yl)-2′-(ethoxymethyl)-[1,1′-biphenyl]-2-sulfonamide]	8.2		
